# According to PubChem BioAssay (NCI):
#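 96-well plates; 48 h exposure; 5 concentrations. Endpoints by linear interpolation between flanking doses. Not reached: highest tested concentration assigned. Definition used: TGI = concentration required for complete inhibition of growth.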
# Key:
# Test in all cases: inhibition of tumour cell growth, NCI panel, 48 h
# COLO 205 colon = test system: COLO 205 colon
# T-47D breast = test system: T-47D breast
# MOLT-4 leukemia = test system: MOLT-4 leukemia
# HCT-116 colon = test system: HCT-116 colon
# OVCAR-8 ovarian = test system: OVCAR-8 ovarian
# LOX IMVI melanoma = test system: LOX IMVI melanoma
# SW-620 colon = test system: SW-620 colon
# IGROV1 ovarian = test system: IGROV1 ovarian
# MALME-3M melanoma = test system: MALME-3M melanoma
# UACC-257 melanoma = test system: UACC-257 melanoma
# HCC-2998 colon = test system: HCC-2998 colon
# UACC-62 melanoma = test system: UACC-62 melanoma
# KM12 colon = test system: KM12 colon
# NCI-H522 lung = test system: NCI-H522 lung
# ACHN renal = test system: ACHN renal
# HT29 colon = test system: HT29 colon
# 786-0 renal = test system: 786-0 renal
# NCI-H23 lung = test system: NCI-H23 lung
# SK-MEL-28 melanoma = test system: SK-MEL-28 melanoma
# RPMI-8226 leukemia = test system: RPMI-8226 leukemia
# SNB-19 CNS = test system: SNB-19 CNS
# OVCAR-4 ovarian = test system: OVCAR-4 ovarian
# PC-3 prostate = test system: PC-3 prostate
# CCRF-CEM leukemia = test system: CCRF-CEM leukemia
# MCF7 breast = test system: MCF7 breast
# A549 NSCLC = test system: A549 NSCLC
# OVCAR-3 ovarian = test system: OVCAR-3 ovarian
# DU-145 prostate = test system: DU-145 prostate
# HL-60(TB) leukemia = test system: HL-60(TB) leukemia
# SNB-75 CNS = test system: SNB-75 CNS
# U251 CNS = test system: U251 CNS
# HOP-62 NSCLC = test system: HOP-62 NSCLC
# MDA-N = test system: MDA-N
# SN12C renal = test system: SN12C renal
# NCI/ADR-RES ovarian = test system: NCI/ADR-RES ovarian
# SF-268 CNS = test system: SF-268 CNS
# EKVX NSCLC = test system: EKVX NSCLC
# UO-31 renal = test system: UO-31 renal
# SF-295 CNS = test system: SF-295 CNS
# BT-549 breast = test system: BT-549 breast
# HS 578T breast = test system: HS 578T breast
# OVCAR-5 ovarian = test system: OVCAR-5 ovarian
# SK-MEL-5 melanoma = test system: SK-MEL-5 melanoma
# CAKI-1 renal = test system: CAKI-1 renal
# NCI-H226 lung = test system: NCI-H226 lung
# TK-10 renal = test system: TK-10 renal
# RXF 393 renal = test system: RXF 393 renal
# K-562 leukemia = test system: K-562 leukemia
# SF-539 CNS = test system: SF-539 CNS
# SR leukemia = test system: SR leukemia
# HOP-92 NSCLC = test system: HOP-92 NSCLC
# HCT-15 colon = test system: HCT-15 colon
# NCI-H460 lung = test system: NCI-H460 lung
# M14 melanoma = test system: M14 melanoma
# A498 renal = test system: A498 renal
# MDA-MB-435 = test system: MDA-MB-435
# MDA-MB-231 breast = test system: MDA-MB-231 breast
# SK-OV-3 ovarian = test system: SK-OV-3 ovarian
# SK-MEL-2 melanoma = test system: SK-MEL-2 melanoma
smiles,measurement,setting,value
Cc1ccc(C)c2c1C/C(=C\c1ccccc1C(=O)O)C2=O,TGI,COLO 205 colon,> 100 µM
same,TGI,T-47D breast,> 100 µM
same,TGI,MOLT-4 leukemia,> 100 µM
same,TGI,HCT-116 colon,> 100 µM
same,TGI,OVCAR-8 ovarian,> 100 µM
same,TGI,LOX IMVI melanoma,> 100 µM
same,TGI,SW-620 colon,> 100 µM
same,TGI,IGROV1 ovarian,> 100 µM
same,TGI,MALME-3M melanoma,> 100 µM
same,TGI,UACC-257 melanoma,> 100 µM
same,TGI,HCC-2998 colon,> 100 µM
same,TGI,UACC-62 melanoma,> 100 µM
same,TGI,KM12 colon,> 100 µM
same,TGI,NCI-H522 lung,> 100 µM
same,TGI,ACHN renal,> 100 µM
same,TGI,HT29 colon,> 100 µM
same,TGI,786-0 renal,> 100 µM
same,TGI,NCI-H23 lung,> 100 µM
same,TGI,SK-MEL-28 melanoma,> 100 µM
same,TGI,RPMI-8226 leukemia,> 100 µM
same,TGI,SNB-19 CNS,> 100 µM
same,TGI,OVCAR-4 ovarian,> 100 µM
same,TGI,PC-3 prostate,> 100 µM
same,TGI,CCRF-CEM leukemia,> 100 µM
same,TGI,MCF7 breast,> 100 µM
same,TGI,A549 NSCLC,> 100 µM
same,TGI,OVCAR-3 ovarian,> 100 µM
same,TGI,DU-145 prostate,> 100 µM
same,TGI,HL-60(TB) leukemia,> 100 µM
same,TGI,SNB-75 CNS,> 100 µM
same,TGI,U251 CNS,> 100 µM
same,TGI,HOP-62 NSCLC,> 100 µM
same,TGI,MDA-N,> 100 µM
same,TGI,SN12C renal,> 100 µM
same,TGI,NCI/ADR-RES ovarian,> 100 µM
same,TGI,SF-268 CNS,> 100 µM
same,TGI,EKVX NSCLC,> 100 µM
same,TGI,UO-31 renal,> 100 µM
same,TGI,SF-295 CNS,> 100 µM
same,TGI,BT-549 breast,> 100 µM
same,TGI,HS 578T breast,> 100 µM
same,TGI,OVCAR-5 ovarian,> 100 µM
same,TGI,SK-MEL-5 melanoma,> 100 µM
same,TGI,CAKI-1 renal,> 100 µM
same,TGI,NCI-H226 lung,80.5 µM
same,TGI,TK-10 renal,> 100 µM
same,TGI,RXF 393 renal,> 100 µM
same,TGI,K-562 leukemia,> 100 µM
same,TGI,SF-539 CNS,97.7 µM
same,TGI,SR leukemia,> 100 µM
same,TGI,HOP-92 NSCLC,> 100 µM
same,TGI,HCT-15 colon,> 100 µM
same,TGI,NCI-H460 lung,> 100 µM
same,TGI,M14 melanoma,> 100 µM
same,TGI,A498 renal,> 100 µM
same,TGI,MDA-MB-435,> 100 µM
CCC1=C(C)C(=O)N/C1=C\c1[nH]c(C)c([C@H](C)CCN)c1C,TGI,MDA-MB-231 breast,32.7 µM
same,TGI,COLO 205 colon,31.1 µM
same,TGI,T-47D breast,26.2 µM
same,TGI,MOLT-4 leukemia,> 100 µM
same,TGI,HCT-116 colon,27.6 µM
same,TGI,OVCAR-8 ovarian,28.8 µM
same,TGI,LOX IMVI melanoma,28.7 µM
same,TGI,SW-620 colon,35.1 µM
same,TGI,IGROV1 ovarian,32 µM
same,TGI,MALME-3M melanoma,32.8 µM
same,TGI,UACC-62 melanoma,31.5 µM
same,TGI,KM12 colon,30.7 µM
same,TGI,NCI-H522 lung,24.4 µM
same,TGI,ACHN renal,32.9 µM
same,TGI,HT29 colon,29.6 µM
same,TGI,786-0 renal,28.9 µM
same,TGI,NCI-H23 lung,26.8 µM
same,TGI,SK-MEL-28 melanoma,32.5 µM
same,TGI,RPMI-8226 leukemia,> 100 µM
same,TGI,OVCAR-4 ovarian,26.7 µM
same,TGI,CCRF-CEM leukemia,> 100 µM
same,TGI,MCF7 breast,32.9 µM
same,TGI,A549 NSCLC,34.3 µM
same,TGI,SK-OV-3 ovarian,31.5 µM
same,TGI,OVCAR-3 ovarian,30.1 µM
same,TGI,DU-145 prostate,32.5 µM
same,TGI,HL-60(TB) leukemia,42.4 µM
same,TGI,SNB-75 CNS,22.6 µM
same,TGI,U251 CNS,28.9 µM
same,TGI,HOP-62 NSCLC,32.7 µM
same,TGI,MDA-N,29.1 µM
same,TGI,SN12C renal,29.8 µM
same,TGI,NCI/ADR-RES ovarian,49 µM
same,TGI,SF-268 CNS,30.4 µM
same,TGI,EKVX NSCLC,28.1 µM
same,TGI,UO-31 renal,29.2 µM
same,TGI,SF-295 CNS,31.5 µM
same,TGI,BT-549 breast,29.9 µM
same,TGI,HS 578T breast,28.6 µM
same,TGI,OVCAR-5 ovarian,31.7 µM
same,TGI,SK-MEL-5 melanoma,31.4 µM
same,TGI,CAKI-1 renal,32.3 µM
same,TGI,NCI-H226 lung,31.8 µM
same,TGI,K-562 leukemia,> 100 µM
same,TGI,SF-539 CNS,15.5 µM
same,TGI,SR leukemia,> 100 µM
same,TGI,HOP-92 NSCLC,28.6 µM
same,TGI,HCT-15 colon,28.6 µM
same,TGI,NCI-H460 lung,35.5 µM
same,TGI,M14 melanoma,30.4 µM
same,TGI,A498 renal,33.4 µM
same,TGI,MDA-MB-435,29.6 µM
same,TGI,SK-MEL-2 melanoma,35.1 µM
